# Results reported in patent US20220016092A1, “METHODS FOR TREATING SYMPTOMS AND DISORDERS ASSOCIATED WITH LYSOSOMAL STORAGE DISEASES” (GENZYME CORPORATION, priority 2019, published 2022).
# Legend:
# [1] = tested on: GM3 expression in B16 mouse melanoma cells; test: GM3 fluorescent-linked immunosorbent assay (FLISA), B16 cells; assay type: cell-based; conditions: 48 hours
# Text: (§1) Inhibition of glucosylceramide synthase activity can be measured with one or more assays. A first assay is a microsomal assay that directly measures the conversion of ceramide to glucosylceramide by HPLC. Microsomes are a source of glucosylceramide synthase activity in the microsomal assay. A second assay is a cell based, phenotypic assay that monitors cell surface expression of the downstream lipid GM3 by antibody mediated immunofluorescence. Specific protocols are provided below.
# (§2) This is a phenotypic assay that measures GM3 expression in B16 mouse melanoma or C32 human melanoma cells following treatment with test compounds. Cell surface GM3 expression is determined by antibody mediated fluorescence.
# (§3) Compounds are diluted in media and plated in 384 well plates in DMSO. B16 and C32 cells are assayed at densities of 20,000 cells/ml and 62,500 cells/ml, respectively, per well. Each titration curve contains 10 points that are assayed in duplicate on each test run. The plates are incubated for 48 hours at 37° C., 5% CO2, and are then washed once with TBS. Anti-GM3 antibody is added to each well and the plates are then incubated for an additional one hour at room temperature. Plates are subsequently washed twice and incubated for an additional hour with the labeled secondary antibody. Following the final incubation, the plates are washed twice and the fluorescence at λex=D640/20 nm and λem=657 nm is detected on a fluorescent reader.
# (§4) The results of the microsomal assays are expressed as “GCS IC50”, which represents the concentration of the compound causing 50% inhibition of glucosylceramide synthase activity. The results of the cell-based assays are expressed as “GM3 B16 IC50” or “GM3 C32 IC50” for the B16 assay and the C32 assay, respectively. These values represent the concentration of the compound causing 50% inhibition of GM3 expression on the cell surface.
# [2] = tested on: GM3 expression in C32 human melanoma cells; test: GM3 fluorescent-linked immunosorbent assay (FLISA), C32 cells; assay type: cell-based; conditions: 48 hours
# Text: as §1, §2, §3, §4
# [3] = tested on: GL-3, lyso-GL-3, GL-1 and GM3; conditions: Fabry patients of the historical phase 3 trial (Eng et al. 2001), matched; after 156 weeks; cited from earlier work
Molecule,IC50 [1] [nM],IC50 [2] [nM],Plasma GL-3 levels [3] [µg/mL]
"CC(C)(NC(=O)OC1CN2CCC1CC2)c1cccc(-c2ccc(F)cc2)c1 (stereo not drawn) [Compound 1, 1-azabicyclo[2.2.2]oct-3-yl[2-(4′-fluorobiphenyl-3-yl)propan-2-yl]carbamate]",15.6,2.1,–
"COCCOc1ccc(-c2ccc(C(C)(C)NC(=O)O[C@@H]3CN4CCC3CC4)cc2)cc1 [Compound 3, (S)-quinuclidin-3-yl(2-(4′-(2-methoxyethoxy)-[1,1′-biphenyl]-4-yl)propan-2-yl)carbamate]",43.7,1.31,–
"CC(C)(NC(=O)OC1CN2CCC1CC2)c1cccc(-c2ccccc2)c1 (stereo not drawn) [Compound 4, 1-azabicyclo[2.2.2]oct-3-yl[2-(biphenyl-3-yl)propan-2-yl]carbamate]",11.6,0.8,–
"CC(C)(NC(=O)O[C@@H]1CN2CCC1CC2)c1ccc(-c2ccccc2)cc1 [Compound 5, (S)-quinuclidin-3-yl 2-(biphenyl-4-yl)propan-2-ylcarbamate]",19.3,0.3,–
"O=C(NC1(c2ccc(-c3ccccc3)cc2)CC1)OC1CN2CCC1CC2 (stereo not drawn) [Compound 6, Quinuclidin-3-yl 1-(biphenyl-4-yl)cyclopropylcarbamate]",18.1,0.6,–
"O=C(NC1(c2ccc(-c3ccc(F)cc3)cc2)CC1)O[C@@H]1CN2CCC1CC2 [Compound 7, (S)-quinuclidin-3-yl 1-(4′-fluorobiphenyl-4-yl)cyclopropylcarbamate]",8.1,0.4,–
"O=C(NC1(c2ccc(-c3ccc(F)cc3F)cc2)CC1)O[C@@H]1CN2CCC1CC2 [Compound 8, (S)-1-azabicyclo[2.2.2]oct-3-yl[1-(2′,4′-difluorobiphenyl-4-yl)cyclopropyl]carbamate]",7.5,0.4,–
"COc1ccc(-c2ccc(C3(NC(=O)OC4CN5CCC4CC5)CC3)cc2)cc1 (stereo not drawn) [Compound 9, 1-azabicyclo[2.2.2]oct-3-yl[1-(4′-methoxybiphenyl-4-yl)cyclopropyl]carbamate]",16.8,0.4,–
"CC(C)(NC(=O)OC1CN2CCC1CC2)c1csc(-c2ccc(F)cc2)c1 (stereo not drawn) [Compound 10, Quinuclidin-3-yl 2-(5-(4-fluorophenyl)thiophen-3-yl)propan-2-ylcarbamate]",21.3,2.2,–
"CC(C)(NC(=O)O[C@@H]1CN2CCC1CC2)c1cc(-c2ccc(F)cc2)ns1 [Compound 11, (S)-quinuclidin-3-yl 2-(3-(4-fluorophenyl)isothiazol-5-yl)propan-2-ylcarbamate]",81.9,1.8,–
"CC(C)(NC(=O)O[C@@H]1CN2CCC1CC2)c1nc(-c2ccc(F)cc2)cs1 [Compound 12, (S)-quinuclidin-3-yl 2-(4-(4-fluorophenyl)thiazol-2-yl)propan-2-ylcarbamate]",87.8,3.7,–
"COCCOc1ccc(-c2ccc(C(C)(C)NC(=O)OC3CN4CCC3CC4)cc2)cc1 (stereo not drawn) [Compound 13, Quinuclidin-3-yl(2-(4′-(2-methoxyethoxy)-[1,1′-biphenyl]-4-yl)propan-2-yl)carbamate]",38.6,0.7,–
"COCCOc1cccc(-c2ccc(C(C)(C)NC(=O)O[C@@H]3CN4CCC3CC4)cc2)c1 [Compound 14, (S)-quinuclidin-3-yl(2-(3′-(2-methoxyethoxy)-[1,1′-biphenyl]-4-yl)propan-2-yl)carbamate]",110,5.3,–
"COCCOc1ccc(-c2cccc(C(C)(C)NC(=O)OC3CN4CCC3CC4)c2)cc1 (stereo not drawn) [Compound 15, Quinuclidin-3-yl(2-(4′-(2-methoxyethoxy)-[1,1′-biphenyl]-3-yl)propan-2-yl)carbamate]",29.5,4.9,–
"COCCCOc1ccc(-c2ccc(C(C)(C)NC(=O)OC3CN4CCC3CC4)cc2)cc1 (stereo not drawn) [Compound 16, Quinuclidin-3-yl(2-(4′-(3-methoxypropoxy)-[1,1′-biphenyl]-4-yl)propan-2-yl)carbamate]",66.6,1.6,–
"CC(C)(NC(=O)OC1CN2CCC1CC2)c1ccc(-c2ccc(CO)cc2)cc1 (stereo not drawn) [Compound 17, Quinuclidin-3-yl(2-(4′-(hydroxymethyl)-[1,1′-biphenyl]-4-yl)propan-2-yl)carbamate]",879,21.6,–
"CC(C)(NC(=O)OC1CN2CCC1CC2)c1ccc(-c2ccc(CCO)cc2)cc1 (stereo not drawn) [Compound 18, Quinuclidin-3-yl(2-(4′-(2-hydroxyethyl)-[1,1′-biphenyl]-4-yl)propan-2-yl)carbamate]",656,22.3,–
"COCCCOc1ccc(-c2nc(C(C)(C)NC(=O)OC3CN4CCC3CC4)cs2)cc1 (stereo not drawn) [Compound 19, Quinuclidin-3-yl(2-(2-(4-(3-methoxypropoxy)phenyl)thiazol-4-yl)propan-2-yl)carbamate]",197,42.6,–
"COCCOc1ccc(-c2nc(C(C)(C)NC(=O)OC3CN4CCC3CC4)cs2)cc1 (stereo not drawn) [Compound 20, Quinuclidin-3-yl(2-(2-(4-(2-methoxyethoxy)phenyl)thiazol-4-yl)propan-2-yl)carbamate]",106,19.8,–
"COCCOc1ccc(-c2ccc(C(C)(C)NC(=O)OC3CN4CCC3CC4)nc2)cc1 (stereo not drawn) [Compound 21, Quinuclidin-3-yl 2-(5-(4-(2-methoxyethoxy)phenyl)pyridin-2-yl)propan-2-ylcarbamate]",266,11.1,–
"CC(C)(NC(=O)OC1CN2CCC1CC2)c1ccc(-c2ccc(OCCCC#N)cc2)cc1 (stereo not drawn) [Compound 22, Quinuclidin-3-yl(2-(4′-(3-cyanopropoxy)-[1,1′-biphenyl]-4-yl)propan-2-yl)carbamate]",86.5,3.2,–
CC(C)(NC(=O)OC1CN2CCC1CC2)c1ccc(-c2ccc(OCC#N)cc2)cc1 (stereo not drawn) [Compound 23],47.7,0.8,–
"agalsidase beta: historical control arm: patients treated with agalsidase beta (Fabrazyme) in a previously completed placebo-controlled phase 3 trial (protein, UniProt P06280 32-429, looked up, agalsidase beta, historical control arm: patients treated with agalsidase beta (Fabrazyme) in a previously completed placebo-controlled phase 3 trial) Alpha-galactosidase A: LDNGLARTPTMGWLHWERFMCNLDCQEEPDSCISEKLFMEMAELMVSEGWKDAGYEYLCIDDCWMAPQRDSEGRLQADPQRFPHGIRQLANYVHSKGLKLGIYADVGNKTCAGFPGSFGYYDIDAQTFADWGVDLLKFDGCYCDSLENLADGYKHMSLALNRTGRSIVYSCEWPLYMWPFQKPNYTEIRQYCNHWRNFADIDDSWKSIKSILDWTSFNQERIVDVAGPGGWNDPDMLVIGNFGLSWNQQVTQMALWAIMAAPLFMSNDLRHISPQAKALLQDKDVIAINQDPLGKQGYQLRQGDNFEVWERPLSGLAWAVAMINRQEIGGPRSYTIAVASLGKGVACNPACFITQLLPVKRKLGFYEWTSRLRSHINPTGTVLLQLENTMQMSLKDLL",–,–,4.44
